Laboratory results from patent US9161895B1, “Compositions and methods for improving overall tooth health and appearance” (The Procter & Gamble Company, priority 2008, dated 2015).

How the values were obtained:
[1] = compatibility of organophosphate additives with stannous fluoride solutions: visual inspection and soluble tin in supernatant; assay type: physicochemical
Description: Aqueous formulations of polyvalent metal antibacterial agents were prepared and evaluated for clarity, chemical content and performance when mixed with various organophosphate additives as described above. The compositions comprise stannous fluoride as an example of polyvalent metal cation in combination with sodium gluconate or sodium tripolyphosphate as stabilizer and organophosphate additives. The compositions also contained zinc. […] Following addition of additives, the solutions were immediately inspected for any visual changes and then analyzed for soluble tin in the supernatants after centrifugation.

[2] = test system: total aerobes (pooled saliva inoculum); experiment: bacterial time kill assay of CPC mouthrinse formulations; assay type: cell-based; conditions: 30 seconds
[3] = in vitro erosion cycling protocol (citric acid challenge, transverse microradiography); design: species or system human; conditions: for Surface Loss: aqueous solutions of test organophosphates (control: dentifrice slurry 1:3) in pooled human saliva, 1% citric acid 10 min, 4 treatments/day, 5 days, depth of total mineral loss by TMR; for % reduction vs. regular F control: reduction in surface mineral loss relative to Fluoride toothpaste (1100 ppm F), aqueous solutions
Description: The effectiveness of compositions of the present invention containing an organophosphate was evaluated according to the following in vitro erosion cycling protocol.
Tooth (dentin or enamel) specimens are prepared by cutting 3 mm-4 mm cores from extracted, human teeth using a diamond core drill. The teeth, collected by local surgeons, are stored until use in a 5% Thymol solution maintained at room temperature. Specimens are mounted on lucite rods with a dental acrylic (Dura Base, Reliance Mfg. Co.) covering all sides except the surface. Course polishing with 600-grit silicon carbide-water slurry is used to remove approximately 50 microns of the outer specimen surface to ensure homogeneity among specimens. Specimens are then polished with gamma alumina (Buehler No. 3, B Gamma Micropolish Alumina) to a mirror-like finish.
Approximately ⅔ of the surface of each specimen is then covered with an acid resistant nail polish (placed in a mesial-distal fashion), leaving the center portion exposed as a treatment window. Covered portions remain covered with the acid-resistant nail polish throughout the experiment, serving as the control (untreated) areas for later microradiographic analysis. Specimens are randomly assigned to one of four treatment groups (4 specimens/group).
Each group of specimens is placed in 20 ml of fresh, pooled human saliva for at least one hour to form an initial layer of pellicle on the specimen surfaces prior to first day of treatment. To begin the treatment phase, aqueous solutions of the test organophosphates and dentifrice slurry (1:3) of the control fluoride toothpaste are prepared in fresh, pooled human saliva. Each treatment cycle consists of: dentifrice slurry (2 min)→rinse in deionized distilled H2O→saliva (1 hour)→erosion challenge (10 min)→rinse in ddiH2O→saliva. There are 4 treatments per day for a total of five treatment days. Dentifrice treatments consist of immersing the specimens into the dentifrice slurry for two minutes while specimens rotate at 75 rpm. The erosion challenge consists of soaking each treatment group in 12 ml of 1% Citric acid (at room temperature). At any time specimens are not in treatment, they remain in 20 ml of pooled, human saliva (stirred). The saliva is refreshed 3×/day. At night, each group of specimens remains immersed in saliva (stirred at room temperature).
After 5 days of treatment, thin cross-sections (80-120 μm thick) of each specimen are removed for assessment using standardized transverse microradiography (TMR) techniques. The exposed, treated area of each specimen is assessed with respect to complete mineral loss (erosion). Results with simple aqueous solutions of various alkyl phosphate compounds are presented in Table 1 as depth (in microns) of total mineral loss from the original specimen surface using the covered (untreated) areas as anatomical reference points. For comparison, percent reduction in surface mineral loss is calculated relative to water or fluoride containing compositions.

[4] = 0.454% stannous fluoride/0.6% sodium gluconate solution, additive 2.0%
[5] = stannous fluoride/sodium gluconate solution, additive 0.2%
[6] = stannous fluoride/sodium tripolyphosphate solution, additive 0.08%
[7] = mouthrinse: organophosphate additive 0.05%, CPC 0.05%
[8] = mouthrinse: organophosphate additive 0.1%, CPC 0.1%
[9] = stannous fluoride/sodium gluconate solution, additive 1.0%
[10] = stannous fluoride/sodium tripolyphosphate solution, additive 1.0%
[11] = 0.454% stannous fluoride/3.0% sodium tripolyphosphate solution, additive 2.0%
[12] = stannous fluoride/sodium gluconate solution, additive 0.5%

## Sodium diLaureth-10 phosphate [DLP-10]
[1]; [4]
  Soluble Tin: 2886 ppm
  Visual Inspection: Clear

## Potassium C12/13 phosphate [MAP 230K]
[2]; mouthrinse: organophosphate additive 0.0335%, CPC 0.0165%
  Log Reduction vs. water control: −0.05
[2]; mouthrinse: organophosphate additive 0.04%, CPC 0.01%
  Log Reduction vs. water control: −0.01
[3]
  Surface Loss: 10.50 μm
  % reduction vs. regular F control: 68.89%
[1]; [5]
  Soluble Tin: 2015 ppm
  Visual Inspection: Slight precipitate
[1]; [6]
  Soluble Tin: 2814 ppm
  Visual Inspection: Slight precipitate

## PPG5 ceteareth-10 phosphate [CrodaphosSG]
[3]
  Surface Loss: 18.50 μm
  % reduction vs. regular F control: 45.19%

## Laureth 3 phosphate [Foamphos L-3]
[2]; [7]
  Log Reduction vs. water control: 2.04
[2]; [8]
  Log Reduction vs. water control: 2.05
[3]
  Surface Loss: 13.25 μm
  % reduction vs. regular F control: 60.74%
[1]; [9]
  Soluble Tin: 1371 ppm
  Visual Inspection: Slight precipitate
[1]; [10]
  Soluble Tin: 3496 ppm
  Visual Inspection: Slight hazy

## Trilaureth-4 phosphate [Hostaphat KL 340D]
[3]
  Surface Loss: 22.50 μm
  % reduction vs. regular F control: 33.33%

## Laureth-9 phosphate [Foamphos L-9]
[2]; [7]
  Log Reduction vs. water control: 2.76
[2]; mouthrinse: organophosphate additive 0.1%, CPC 0.05%
  Log Reduction vs. water control: 2.76
[2]; [8]
  Log Reduction vs. water control: 2.76
[1]
  clarity of stannous fluoride solutions (in words): clear solutions
  soluble stannous (in words): high levels of soluble stannous
[1]; [4]
  Soluble Tin: 3145 ppm
  Visual Inspection: Slight hazy
[1]; [11]
  Soluble Tin: 2511 ppm
  Visual Inspection: Clear

## Laureth-1 phosphate [MAP L210]
[3]
  Surface Loss: 25.75 μm
  % reduction vs. regular F control: 23.70%
[1]; [11]
  Soluble Tin: 1888 ppm
  Visual Inspection: Slight precipitate
[1]; [12]
  Soluble Tin: 1419 ppm
  Visual Inspection: Slight precipitate
